The results in this text go back to patent publication US8741806B2, “Herbicides” (Syngenta Limited, priority 2009, dated 2014).

Common to all, as to type: in vivo
The subject of assay [1] is Setaria faberi (SETFA). In words: Example A pre-emergence herbicidal activity, glasshouse pot test. The following applies: Rate 250 g/ha, evaluated 20 days later, 100=total damage to plant, 0=no damage to plant. As to the method:
(§1) Seeds of a variety of test species were sown in standard soil in pots. After cultivation for one day (pre-emergence) or after 10 days cultivation (post-emergence) under controlled conditions in a glasshouse, the plants were sprayed with an aqueous spray solution derived from the formulation of the technical active ingredient of formula I in 0.6 ml acetone and 45 ml formulation solution containing 10.6% Emulsogen EL (Registry number 61791-12-6), 42.2% N-methylpyrrolidone, 42.2% dipropylene glycol monomethyl ether (Registry number 34590-94-8) and 0.2% X-77 (Registry number 11097-66-8). The test plants were then grown in a greenhouse under optimum conditions until, 15 days later for post-emergence and 20 days for pre-emergence, the test was evaluated (100=total damage to plant; 0=no damage to plant). The compound of Example 1-8-a-1 from WO99/48869 was also sprayed for comparison. Alopecurus myosuroides (ALOMY), Avena fatua (AVEFA), Lolium perenne (LOLPE), Setaria faberi (SETFA), Digitaria sanguinalis (DIGSA), Echinochloa crus-galli (ECHCG) and Sorghum bicolor (SORVU) Pre-Emergence Activity

Assay [2] relates to Lolium perenne (LOLPE). Described as above. The following applies: Rate 250 g/ha, evaluated 20 days later, 100=total damage to plant, 0=no damage to plant. The procedure:
as §1

For assay [3], the system named is Alopecurus myosuroides (ALOMY). Described as above. As to conditions: Rate 250 g/ha, evaluated 20 days later, 100=total damage to plant, 0=no damage to plant. The procedure:
as §1

For assay [4], the system named is Avena fatua (AVEFA). Described as above. The following applies: Rate 250 g/ha, evaluated 20 days later, 100=total damage to plant, 0=no damage to plant. As to the method: as §1
In assay [5] the test system is Echinochloa crus-galli (ECHCG). Described as above. As to conditions: Rate 250 g/ha, evaluated 20 days later, 100=total damage to plant, 0=no damage to plant. As to the method:
as §1

Assay [6] has as its system Setaria faberi (SETFA). In words: Example B pre-emergence herbicidal activity, glasshouse pot test. As to conditions: rate 250 g/ha, evaluated after 13 days, scale 0-100. In outline:
(§2)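 Pots were sprayed one day after sowing with the active ingredient in acetone/water (50:50) containing 0.5% Tween 20. Plants were kept in a glasshouse at 24/16° C day/night, 14 h light, 65% humidity. Damage was scored 13 days later (0 none to 100 total).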

Assay [7] deals with Alopecurus myosuroides (ALOMY). Described as above. The following applies: 312 h, rate 250 g/ha, evaluated after 13 days, scale 0-100, read-out: Pre-emergence activity ALOMY (100=total damage to plant; 0=no damage to plant). The gist of the method:
as §2

The subject of assay [8] is Avena fatua (AVEFA). The assay is described as above. As to conditions: 312 h, rate 250 g/ha, evaluated after 13 days, scale 0-100, read-out: Pre-emergence activity AVEFA (100=total damage to plant; 0=no damage to plant). In outline:
as §2

Assay [9] deals with Echinochloa crus-galli (ECHCG). The assay is described as above. As to conditions: 312 h, rate 250 g/ha, evaluated after 13 days, scale 0-100, read-out: Pre-emergence activity ECHCG (100=total damage to plant; 0=no damage to plant). The gist of the method: as §2
Assay [10] has as its system Setaria faberi (SETFA). The assay can be described thus: Example A post-emergence herbicidal activity, glasshouse pot test. As to conditions: Rate 15 g/ha, evaluated 15 days later, 100=total damage to plant, 0=no damage to plant. As to the method: as §1, with “Post-Emergence” for “Pre-Emergence”
Assay [11] has as its system Alopecurus myosuroides (ALOMY). The description is as above. The following applies: Rate 15 g/ha, evaluated 15 days later, 100=total damage to plant, 0=no damage to plant. The procedure:
as §1, with “Post-Emergence” for “Pre-Emergence”

For assay [12], the system named is Avena fatua (AVEFA). Described as above. As to conditions: Rate 15 g/ha, evaluated 15 days later, 100=total damage to plant, 0=no damage to plant. The procedure: as §1, with “Post-Emergence” for “Pre-Emergence”
In assay [13] the test system is Sorghum bicolor (SORVU). The assay is described as above. As to conditions: Rate 15 g/ha, evaluated 15 days later, 100=total damage to plant, 0=no damage to plant. The procedure: as §1, with “Post-Emergence” for “Pre-Emergence”
For assay [14], the system named is Echinochloa crus-galli (ECHCG). Described as above. As to conditions: Rate 15 g/ha, evaluated 15 days later, 100=total damage to plant, 0=no damage to plant. As to the method:
as §1, with “Post-Emergence” for “Pre-Emergence”

Assay [15] relates to Digitaria sanguinalis (DIGSA). Described as above. The following applies: Rate 15 g/ha, evaluated 15 days later, 100=total damage to plant, 0=no damage to plant. The procedure: as §1, with “Post-Emergence” for “Pre-Emergence”
The subject of assay [16] is Setaria faberi (SETFA). In words: Example B post-emergence herbicidal activity, glasshouse pot test. As to conditions: rate 250 g/ha, evaluated after 13 days, scale 0-100. In outline:
(§3)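 Seeds sown in standard soil, grown 8 days in glasshouse (24/16 °C day/night, 14 h light, 65% humidity), then sprayed post-emergence with compound in acetone/water (50:50) containing 0.5% Tween 20. Damage scored visually after 13 days on a 0–100 scale (100 = total damage).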

Assay [17] relates to Alopecurus myosuroides (ALOMY). The description is as above. The following applies: 312 h, rate 250 g/ha, evaluated after 13 days, scale 0-100, read-out: Post-emergence activity ALOMY (100=total damage to plant; 0=no damage to plant). In outline: as §3
Assay [18] deals with Avena fatua (AVEFA). Described as above. The following applies: 312 h, rate 250 g/ha, evaluated after 13 days, scale 0-100, read-out: Post-emergence activity AVEFA (100=total damage to plant; 0=no damage to plant). In outline: as §3
The subject of assay [19] is Echinochloa crus-galli (ECHCG). The description is as above. As to conditions: 312 h, rate 250 g/ha, evaluated after 13 days, scale 0-100, read-out: Post-emergence activity ECHCG (100=total damage to plant; 0=no damage to plant). The gist of the method: as §3
Assay [20] concerns Digitaria sanguinalis (DIGSA). The assay can be described thus: Example A pre-emergence herbicidal activity, glasshouse pot test. The following applies: Rate 250 g/ha, evaluated 20 days later, 100=total damage to plant, 0=no damage to plant. The procedure:
as §1

For assay [21], the system named is Lolium perenne (LOLPE). The assay can be described thus: Example B pre-emergence herbicidal activity, glasshouse pot test. The following applies: 312 h, rate 250 g/ha, evaluated after 13 days, scale 0-100, read-out: Pre-emergence activity LOLPE (100=total damage to plant; 0=no damage to plant). In outline: as §2
Assay [22] concerns Lolium perenne (LOLPE). The assay can be described thus: Example B post-emergence herbicidal activity, glasshouse pot test. The following applies: 312 h, rate 250 g/ha, evaluated after 13 days, scale 0-100, read-out: Post-emergence activity LOLPE (100=total damage to plant; 0=no damage to plant). In outline:
as §3

In the case of `CCc1ccc(-c2ccc(Cl)cc2)cc1C1=C(O)C(C)(C)CCC1=O` [Compound T1, 2-(4′-chloro-4-ethylbiphen-3-yl)-4,4-dimethyl-1,3-cyclohexanedione], the “Pre-Emergence Activity SETFA (damage to plant)” value in assay [1] amounted to 100. Further, in assay [2], the “Pre-Emergence Activity LOLPE (damage to plant)” value was determined as 90. In addition, in assay [3], the “Pre-Emergence Activity ALOMY (damage to plant)” value worked out at 60. The “Pre-Emergence Activity AVEFA (damage to plant)” value in [4] is reported as 70. Besides, the “Pre-Emergence Activity ECHCG (damage to plant)” value in assay [5] stood at 90. In addition, the “Pre-emergence activity SETFA (100=total damage to plant; 0=no damage to plant)” value in assay [6] is on record as 100. The pest or weed control at 250 g/ha was 50% in [7]; 0% in [8]; 100% in assay [9]; 90% in [17]; 40% in [18]; 100% in assay [19]. Further, the “Post-Emergence Activity SETFA (damage to plant)” value in assay [10] was 90. Besides, in [11], the “Post-Emergence Activity ALOMY (damage to plant)” value is 0. For the same molecule, the “Post-Emergence Activity AVEFA (damage to plant)” value in [12] was found to be 10. The “Post-Emergence Activity SORVU (damage to plant)” value in assay [13] is on record as 50. Also, the “Post-Emergence Activity ECHCG (damage to plant)” value in assay [14] is 70. Besides, the “Post-Emergence Activity DIGSA (damage to plant)” value in assay [15] stood at 80. In addition, the “Post-emergence activity SETFA (100=total damage to plant; 0=no damage to plant)” value in assay [16] was found to be 100.
Consider `Cc1ccc(-c2ccc(Cl)cc2)cc1C1=C(O)C(C)(C)CCC1=O` [Example 1-8-a-1 from WO99/48869, reference compound], for which, in [1], the “Pre-Emergence Activity SETFA (damage to plant)” value stood at 30. In addition, the “Pre-Emergence Activity LOLPE (damage to plant)” value in [2] is recorded as 20. In addition, in assay [3], the “Pre-Emergence Activity ALOMY (damage to plant)” value is reported as 20. Besides, the “Pre-Emergence Activity AVEFA (damage to plant)” value in [4] amounted to 0. The “Pre-Emergence Activity ECHCG (damage to plant)” value in assay [5] was determined as 90. Also, the “Pre-Emergence Activity DIGSA (damage to plant)” value in assay [20] is listed as 70. Moreover, the “Post-Emergence Activity SETFA (damage to plant)” value in assay [10] came out at 20. The “Post-Emergence Activity ALOMY (damage to plant)” value in [11] came to 0. Also, in assay [12], the “Post-Emergence Activity AVEFA (damage to plant)” value was 0. Moreover, the “Post-Emergence Activity SORVU (damage to plant)” value in assay [13] is on record as 0. For the same molecule, in assay [14], the “Post-Emergence Activity ECHCG (damage to plant)” value was 70. For the same molecule, the “Post-Emergence Activity DIGSA (damage to plant)” value in assay [15] was found to be 20.
`CCc1ccc(-c2ccc(Cl)c(C(F)(F)F)c2)cc1C1=C(O)C(C)(C)CCC1=O` [Compound T8]: the pest or weed control at 250 g/ha stood at 90% in assay [21]; 0% in assay [7]; 20% in assay [8]; 100% in assay [9]; 80% in assay [22]; 40% in [17]. Moreover, the figures for the pest or weed control at 250 g/ha in assay [18] and in assay [19] were 30% and 100%, respectively.
`CCc1ccc(-c2ccc(Cl)c(F)c2F)cc1C1=C(O)C(C)(C)CC(C)(C)C1=O` [Compound T62]: the pest or weed control at 250 g/ha in assay [21] amounted to 90%; in [7], 60%; in assay [8] it was 50%; in [9], 90%; in [22] it was 80%; in assay [17] it was 60%. In addition, the pest or weed control at 250 g/ha in assay [18] and in assay [19] was 80% in each case.
In the case of `CCc1ccc(-c2ccc(Cl)c(OC)c2)cc1C1=C(O)CCCC1=O` [Compound T50], the pest or weed control at 250 g/ha was determined as 0% in assay [21]; 20% in assay [7]; 40% in assay [8]; 90% in assay [9]; 80% in [22]; 70% in assay [17]. Further, the pest or weed control at 250 g/ha in assay [18] was 80%; in [19], 100%.
On to `CCc1ccc(-c2ccc(Cl)c(F)c2F)cc1C1=C(O)CC(C)(C)CC1=O` [Compound T30], for which the pest or weed control at 250 g/ha stood at 70% in assay [21]; 0% in assay [7]; 20% in [8]; 70% in [9]; 100% in assay [22]; 80% in assay [17]. The pest or weed control at 250 g/ha in [18] turned out to be 60%; in [19], 100%.
Regarding `CCc1ccc(-c2c(F)cc(Cl)cc2Cl)cc1C1=C(O)CCCC1=O` [Compound T51], the pest or weed control at 250 g/ha in assay [21] turned out to be 100%; in assay [7], 20%; in assay [8] it was 40%; in [9] it was 80%; in assay [22] it was 90%; in assay [17], 40%. Further, the values for the pest or weed control at 250 g/ha in assay [18] and in [19] were 50% and 90%, respectively.
For `CCc1ccc(-c2ccc(Cl)cc2)cc1C1=C(O)C(C)(C)CC(C)(C)C1=O` [Compound T69], the pest or weed control at 250 g/ha in assay [21] was determined as 90%; in assay [7], 10%; in [8], 0%; in assay [9] it was 90%; in assay [22] it was 100%; in assay [17], 20%. Also, the pest or weed control at 250 g/ha turned out to be 40% in [18] and 100% in assay [19].
